Earlier results, collected in US7988985B2, “Pest repellent compositions and methods” (priority 2008, dated 2011).

Tests used:
[1] = tested on: blackflies (Simulium spp.); conditions: High-strength formulations containing up to 100% DEET
[2] = tested on: biting-insect; conditions: Low-strength formulations containing 12.5% DEET
[3] = tested on: mosquitoes (e.g., Anopheles, Culex pipiens, and Aeges aegypti); conditions: High-strength formulations containing up to 100% DEET, 95%+ effective

SMILES: CCN(CC)C(=O)c1cccc(C)c1 [DEET, N,N,-diethyl-m-toluamide]
- effective (repellent effectiveness) [1]: ≥ 95%
- duration of effectiveness ([1]; 95%+ effective): over 4 hours
- effective (repellent effectiveness) [2]: 60-75%
- duration of effectiveness [3]: 10 to 12 h
